From patent US20030212015A1, “Specific modulation of Th1/Th2 cytokine expression by ribavirin in activated T-lymphocytes” (priority 1996, published 2003)

Key:
Type in all cases: cell-based, human
IL-4 mRNA = IL-4 mRNA in PMA/ionomycin-activated T cells (RT-PCR); conditions: FIG. 3
Description: (§1) T-cells were activated by the addition of 500 ng ionomycin and 10 ng phorbol 12-myristate 13-acetate (PMA) (Calbiochem, La Jolla, Calif.) and incubated for 48-72 h at 37° C. PMA/ionomycin-activated T-cells were treated with 0.5-50 μM Ribavirin or with 250-10000 U/ml of a control antiviral, interferon-alpha (Accurate, Westbury, N.Y.) immediately following activation and re-treated 24 h later. T-cells from each plate were used for immunofluorescence analysis and the supernatants used for extracellular cytokine measurements. Following activation, 900 μl cell supernatant from each microplate was transferred to another microplate for analysis of cell-derived cytokine production. The cells are then used in immunofluorescence analyses for intracellular cytokine levels and cytokine receptor expression. […]
(§2) The PCR reaction was performed using GeneAmp PCR kit (Perkin-Elmer Cetus, Foster City, Calif.). […] PCR products were analyzed on 2% agarose gel containing ethidium bromide. […] Equivalent loading was assessed following hybridization with a probe generated from pHE7 sense primer. Washed blots were then analyzed using Phosphorlmager.

IL-2 mRNA = IL-2 mRNA in PMA/ionomycin-activated T cells (RT-PCR); conditions: FIG. 3
Description: as §1, §2

IL-2 = assay: Extracellular IL-2 levels in PMA/ionomycin-activated T cells (ELISA or CTLL-2 bioassay)
Description: (§3) Peripheral blood mononuclear cells (PBMCs) were isolated from the buffy coat following Ficoll-Hypaque density gradient centrifugation of 60 ml blood from healthy donors. T-cells were then purified from the PBMCs using Lymphokwik lymphocyte isolation reagent specific for T-cells (LK-25T, One Lambda, Canoga Park Calif.). An average yield of 40-60×10^6 T-cells were then incubated overnight at 37° C. in 20-30 ml RPMI-AP5 (RPMI-1640 medium (ICN, Costa Mesa, Calif.) containing 20 mM HEPES buffer, pH 7.4, 5% autologous plasma, 1% L-glutamine, 1% penicillin/streptomycin and 0.05% 2-mercaptoethanol) to remove any contaminating adherent cells. In all experiments, T-cells were washed with RPMI-AP5 and then plated on 96-well microtitre plates at a cell concentration of 1×10^6 cells/ml.
(§4) T-cells were activated by the addition of 500 ng ionomycin and 10 ng phorbol 12-myristate 13-acetate (PMA) (Calbiochem, La Jolla, Calif.) and incubated for 48-72 h at 37° C. […]
(§5) Cell-derived human cytokine concentrations were determined in cell supernatants from each microplate. Activation-induced changes in interleukin-2 (IL-2) levels were determined using a commercially available ELISA kit (R & D systems Quantikine kit, Minneapolis, Minn.) or by bioassay using the IL-2-dependent cell line, CTLL-2 (ATCC, Rockville, Md.). […]

IL-2 in CD4+ T cells = assay: Intracellular IL-2 expression in activated CD4+ T cells (two-color flow cytometry); conditions: PMA/ionomycin alone 82%, one experiment, FIG. 5
Description: (§6) T-cells were activated by the addition of 500 ng ionomycin and 10 ng phorbol 12-myristate 13-acetate (PMA) (Calbiochem, La Jolla, Calif.) and incubated for 48-72 h at 37° C. PMA/ionomycin-activated T-cells were treated with 0.5-50 μM Ribavirin or with 250-10000 U/ml of a control antiviral, interferon-alpha (Accurate, Westbury, N.Y.) immediately following activation and re-treated 24 h later. T-cells from each plate were used for immunofluorescence analysis and the supernatants used for extracellular cytokine measurements. Following activation, 900 μl cell supernatant from each microplate was transferred to another microplate for analysis of cell-derived cytokine production. The cells are then used in immunofluorescence analyses for intracellular cytokine levels and cytokine receptor expression.
(§7) For analyses of the intracellular expression of IL-2 in CD4^+ and CD8^+ T cell subsets, T cells were first treated for the last 4 h of 48-72 h activation with 10 μg Brefeldin A (Gibco BRL, Gaithersburg, Md.) to minimize secretion of newly synthesized IL-2 into the extracellular milieu. […]
(§8) We examined whether the effect of Ribavirin on IL-2 expression was specific to CD4^+ or CD8^+ T cells. Intracellular IL-2 expression in fixed and Permeabilized activated T cells was determined by two-color flow cytometry using fluorescence-labeled antibodies to CD4 or CD8 and to IL-2. […]

IL-4 = assay: Extracellular IL-4 levels in PMA/ionomycin-activated T cells (ELISA)
Description: as §3, §4, §5

TNFα = assay: Extracellular TNFα levels in PMA/ionomycin-activated T cells (ELISA)
Description: as §3, §4, §5

IFNγ mRNA = IFNγ mRNA in PMA/ionomycin-activated T cells (RT-PCR); conditions: FIG. 3
Description: as §1, §2

IL-4 (CDw124) receptor = assay: Cell surface IL-4 receptor expression in activated T cells (FACS); conditions: compared to control activated T cells, FIG. 4
Description: as §1, with “production.” for “production. The cells are then used in immunofluorescence analyses for intracellular cytokine levels and cytokine receptor expression.”
(§9) For direct staining with fluorescence-conjugated antibodies to cell surface antigens, the cells were washed twice with isotonic saline solution, pH 7.4 (Becton Dickinson, Mansfield, Mass.) and resuspended in 50 μl isotonic saline solution and split into two samples. One sample aliquot was co-stained with either PE-anti CD25/FITC-anti CD4 or PE-rat anti mouse IgG+anti-CDw124/FITC-anti CD4 mAb and non-specific fluorescence was assessed by staining the second aliquot with PE/FITC-labeled isotype-matched control monoclonal antibody. All fluorescence-labeled monoclonal antibodies were obtained from Becton Dickinson (San Jose, Calif.) except for anti-CDw124 which was obtained from Pharmingen, San Diego, Calif. […]

IL-2 in CD8+ T cells = assay: Intracellular IL-2 expression in activated CD8+ T cells (two-color flow cytometry); conditions: PMA/ionomycin alone 81%, one experiment, FIG. 5
Description: as §6, §7, §8

IL-2 (CD25) receptor = assay: Cell surface IL-2 receptor expression in activated T cells (FACS); conditions: compared to control activated T cells, FIG. 4
Description: as §1, with “production.” for “production. The cells are then used in immunofluorescence analyses for intracellular cytokine levels and cytokine receptor expression.”
as §9

[1] = range 250-10000 U/ml, dose-dependent, compared to untreated activated T cells
[2] = 2, 5 and 10 μM following T cell activation

Row | Molecule | effect on IL-4 mRNA (IL-4 mRNA; 1000, 2000 and 5000 U/ml) | effect on IL-2 mRNA (IL-2 mRNA; 1000, 2000 and 5000 U/ml) | maximal inhibition of IL-2 expression (IL-2; [1]) [%] | percentage of IL-2-expressing CD4+ cells (IL-2 in CD4+ T cells; 5000 U/ml) [%] | maximal increase of extracellular IL-4 (IL-4; 10000 U/ml) [%] | maximal inhibition of TNFα expression (TNFα; [1]) [%] | effect on IFNγ mRNA (IFNγ mRNA; 1000, 2000 and 5000 U/ml) | effect on IL-4 receptor expression (IL-4 (CDw124) receptor; 250-10000 U/ml, dose-dependent) | percentage of IL-2-expressing CD8+ cells (IL-2 in CD8+ T cells; 5000 U/ml) [%] | effect on IL-2 receptor expression (IL-2 (CD25) receptor; 250-10000 U/ml, dose-dependent) | effect on IL-4 mRNA (IL-4 mRNA; [2]) | effect on IL-2 mRNA (IL-2 mRNA; [2]) | maximal augmentation of activated levels of IL-2 (IL-2; at 5 μM (dose range 0.5-50 μM), PMA/ionomycin-activated T cells, 48-72 h, representative experiment, FIG. 1) [%] | percentage of CD4+ T cells expressing IL-2 (IL-2 in CD4+ T cells; 10 μM) [%] | inhibition at 2 µM (IL-4; Homo sapiens, T-cell, at 2 μM, read-out: peak inhibition of activated levels of IL-4) [%] | maximal augmentation of activated levels of TNFα (TNFα; at 20 μM (dose range 0.5-50 μM), PMA/ionomycin-activated T cells, 48-72 h, representative experiment, FIG. 1) [%] | effect on IFNγ mRNA (IFNγ mRNA; [2]) | effect on activated levels of IL-4 receptor (IL-4 (CDw124) receptor; 1-50 μM) | percentage of CD8+ expressing IL-2 (IL-2 in CD8+ T cells; 10 μM) [%] | effect on activated levels of IL-2 receptor (IL-2 (CD25) receptor; 1-50 μM)
1 | interferon-α | increases | decreases | 33 | 81 | 26 | 38 | decreases | increased | 71 | decreased |  |  |  |  |  |  |  |  |  | 
2 | NC(=O)c1ncn([C@@H]2O[C@H](CO)[C@@H](O)[C@H]2O)n1 [Ribavirin, 1-β-D-ribofuranosyl-1,2,4-triazole-3-carboxamide] |  |  |  |  |  |  |  |  |  |  | decreases | elevates | 30 | 91 | 74 | 36 | has no effect | little effect | 91 | little effect
